The source made the active and inactive calls. The rule behind the calls is not given here.
Biological target: T1, Protein cereblon/Nuclear receptor coactivator 3 (Homo sapiens, UniProt Q9Y6Q9+Q96SW2)
Assay: PROTAC activity at CRBN/SRC-3 in human MCF7 cells assessed as induction of SRC-3 degradation at 1 uM incubated for 24 hrs by immunoblot analysis relative to control
Format: cell-based

T1 sequence (Q96SW2 whole entry partner): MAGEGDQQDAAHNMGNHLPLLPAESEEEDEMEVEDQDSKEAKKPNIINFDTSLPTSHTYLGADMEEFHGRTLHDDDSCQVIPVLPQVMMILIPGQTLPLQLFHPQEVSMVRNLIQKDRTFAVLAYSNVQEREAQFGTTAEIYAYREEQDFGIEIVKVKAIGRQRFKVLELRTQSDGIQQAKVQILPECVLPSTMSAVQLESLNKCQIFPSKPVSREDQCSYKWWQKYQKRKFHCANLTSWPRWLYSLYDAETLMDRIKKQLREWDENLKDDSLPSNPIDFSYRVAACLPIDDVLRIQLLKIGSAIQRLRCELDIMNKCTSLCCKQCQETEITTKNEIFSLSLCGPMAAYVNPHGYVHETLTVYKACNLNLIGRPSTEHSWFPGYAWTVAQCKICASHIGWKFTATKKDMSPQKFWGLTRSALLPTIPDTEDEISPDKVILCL
T1 sequence (Q9Y6Q9 2-1424 limits assumed): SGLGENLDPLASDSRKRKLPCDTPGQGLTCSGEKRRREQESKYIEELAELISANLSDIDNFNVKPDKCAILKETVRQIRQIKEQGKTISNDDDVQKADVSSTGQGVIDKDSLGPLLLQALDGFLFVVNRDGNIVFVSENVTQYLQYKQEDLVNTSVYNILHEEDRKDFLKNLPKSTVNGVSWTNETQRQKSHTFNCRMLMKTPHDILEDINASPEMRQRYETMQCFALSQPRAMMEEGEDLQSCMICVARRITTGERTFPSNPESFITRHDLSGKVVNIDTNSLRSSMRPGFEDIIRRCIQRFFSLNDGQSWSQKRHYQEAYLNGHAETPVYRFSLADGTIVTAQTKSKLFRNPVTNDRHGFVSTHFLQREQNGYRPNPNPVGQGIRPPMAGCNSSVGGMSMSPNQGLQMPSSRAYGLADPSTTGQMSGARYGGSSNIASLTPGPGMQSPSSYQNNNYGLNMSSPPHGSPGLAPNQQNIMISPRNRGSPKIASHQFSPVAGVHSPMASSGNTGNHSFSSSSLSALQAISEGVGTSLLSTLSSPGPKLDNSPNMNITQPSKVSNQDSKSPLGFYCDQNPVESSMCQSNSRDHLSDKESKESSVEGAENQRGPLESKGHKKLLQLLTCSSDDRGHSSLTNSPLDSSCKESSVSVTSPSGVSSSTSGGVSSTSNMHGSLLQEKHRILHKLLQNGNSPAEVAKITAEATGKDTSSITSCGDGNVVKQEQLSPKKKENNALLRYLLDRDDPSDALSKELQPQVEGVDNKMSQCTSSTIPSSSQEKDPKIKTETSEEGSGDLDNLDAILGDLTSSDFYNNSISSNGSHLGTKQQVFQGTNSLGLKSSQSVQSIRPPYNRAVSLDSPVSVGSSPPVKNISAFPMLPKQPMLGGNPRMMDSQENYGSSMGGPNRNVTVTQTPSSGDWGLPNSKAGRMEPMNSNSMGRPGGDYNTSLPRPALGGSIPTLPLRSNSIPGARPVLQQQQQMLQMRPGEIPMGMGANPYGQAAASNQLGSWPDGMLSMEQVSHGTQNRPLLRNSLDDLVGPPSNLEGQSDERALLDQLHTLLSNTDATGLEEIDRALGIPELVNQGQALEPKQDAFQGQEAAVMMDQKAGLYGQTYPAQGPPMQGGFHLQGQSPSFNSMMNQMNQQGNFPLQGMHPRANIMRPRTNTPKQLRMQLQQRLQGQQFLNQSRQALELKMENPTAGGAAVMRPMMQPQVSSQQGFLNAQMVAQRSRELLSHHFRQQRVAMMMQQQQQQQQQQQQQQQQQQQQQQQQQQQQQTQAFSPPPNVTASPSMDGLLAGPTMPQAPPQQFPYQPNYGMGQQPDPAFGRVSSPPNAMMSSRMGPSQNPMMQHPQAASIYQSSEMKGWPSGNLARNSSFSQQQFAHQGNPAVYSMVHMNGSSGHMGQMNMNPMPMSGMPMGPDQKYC

Row | SMILES | Activity
1 | C/C(=N\Nc1nc2ccccc2n1C1CN(c2cccc3c2C(=O)N(C2CCC(=O)NC2=O)C3=O)C1)c1ccccn1 (stereo unspecified) | 17%
2 | C/C(=N\Nc1nc2ccccc2n1CCNC(=O)CN1CCC2(CC1)CCN(c1ccc3c(c1)C(=O)N(C1CCC(=O)NC1=O)C3=O)CC2)c1ccccn1 (stereo unspecified) | inactive
3 | C/C(=N\Nc1nc2ccccc2n1C1CN(C(=O)C2CCN(c3cccc4c3C(=O)N(C3CCC(=O)NC3=O)C4=O)CC2)C1)c1ccccn1 (stereo unspecified) | 29%

Results, then the compound that gave them:

Row | Activity | SMILES
4 | 23% | C/C(=N\Nc1nc2ccccc2n1CCNC(=O)CN1CCC(CN2CCN(c3ccc4c(c3)C(=O)N(C3CCC(=O)NC3=O)C4=O)CC2)CC1)c1ccccn1 (stereo unspecified)
5 | 28% | C/C(=N\Nc1nc2ccccc2n1CC1CCN(c2ccc3c(c2)C(=O)N(C2CCC(=O)NC2=O)C3=O)CC1)c1ccccn1 (stereo unspecified)
6 | 10% | C/C(=N\Nc1nc2ccccc2n1C1CN(c2ccc3c(c2)C(=O)N(C2CCC(=O)NC2=O)C3=O)C1)c1ccccn1 (stereo unspecified)

Biological target: T1, Protein cereblon/Nuclear receptor coactivator 3
Assay: PROTAC activity at CRBN/SRC-3 in human MCF7 cells assessed as induction of ER-alpha degradation at 1 uM incubated for 24 hrs by immunoblot analysis relative to control
Format: cell-based

Row | SMILES | Activity
7 | C/C(=N\Nc1nc2ccccc2n1C1CN(c2cccc3c2C(=O)N(C2CCC(=O)NC2=O)C3=O)C1)c1ccccn1 (stereo unspecified) | 16%
8 | C/C(=N\Nc1nc2ccccc2n1CCNC(=O)CN1CCC2(CC1)CCN(c1ccc3c(c1)C(=O)N(C1CCC(=O)NC1=O)C3=O)CC2)c1ccccn1 (stereo unspecified) | inactive
9 | C/C(=N\Nc1nc2ccccc2n1C1CN(C(=O)C2CCN(c3cccc4c3C(=O)N(C3CCC(=O)NC3=O)C4=O)CC2)C1)c1ccccn1 (stereo unspecified) | 15%

Now from value to compound:

Row | Activity | SMILES
10 | 30% | C/C(=N\Nc1nc2ccccc2n1CCNC(=O)CN1CCC(CN2CCN(c3ccc4c(c3)C(=O)N(C3CCC(=O)NC3=O)C4=O)CC2)CC1)c1ccccn1 (stereo unspecified)
11 | 34% | C/C(=N\Nc1nc2ccccc2n1CC1CCN(c2ccc3c(c2)C(=O)N(C2CCC(=O)NC2=O)C3=O)CC1)c1ccccn1 (stereo unspecified)
12 | inactive | C/C(=N\Nc1nc2ccccc2n1C1CN(c2ccc3c(c2)C(=O)N(C2CCC(=O)NC2=O)C3=O)C1)c1ccccn1 (stereo unspecified)

Test system: MCF7
Assay: Antiproliferative activity against human MCF7 cells assessed as inhibition of cell growth by CCK8 assay
Format: functional, cell-based

Row | SMILES | IC50 [nM]
13 | C/C(=N\Nc1nc2ccccc2n1C1CN(c2cccc3c2C(=O)N(C2CCC(=O)NC2=O)C3=O)C1)c1ccccn1 (stereo unspecified) | 9390
14 | C/C(=N\Nc1nc2ccccc2n1CCNC(=O)CN1CCC2(CC1)CCN(c1ccc3c(c1)C(=O)N(C1CCC(=O)NC1=O)C3=O)CC2)c1ccccn1 (stereo unspecified) | 5590
15 | C/C(=N\Nc1nc2ccccc2n1C1CN(C(=O)C2CCN(c3cccc4c3C(=O)N(C3CCC(=O)NC3=O)C4=O)CC2)C1)c1ccccn1 (stereo unspecified) | 4880

Now those with a lower IC50, led by results:

Row | IC50 [nM] | SMILES
16 | 1230 | C/C(=N\Nc1nc2ccccc2n1CCNC(=O)CN1CCC(CN2CCN(c3ccc4c(c3)C(=O)N(C3CCC(=O)NC3=O)C4=O)CC2)CC1)c1ccccn1 (stereo unspecified)
17 | 1130 | C/C(=N\Nc1nc2ccccc2n1CC1CCN(c2ccc3c(c2)C(=O)N(C2CCC(=O)NC2=O)C3=O)CC1)c1ccccn1 (stereo unspecified)
18 | 320 | C/C(=N\Nc1nc2ccccc2n1C1CN(c2ccc3c(c2)C(=O)N(C2CCC(=O)NC2=O)C3=O)C1)c1ccccn1 (stereo unspecified)

Test system: not listed separately
Assay: Antiproliferative activity against tamoxifen-resistant human LCC2 cells assessed as inhibition of cell growth by CCK8 assay
Format: functional, cell-based

Row | SMILES | IC50 [nM]
19 | C/C(=N\Nc1nc2ccccc2n1CC1CCN(c2ccc3c(c2)C(=O)N(C2CCC(=O)NC2=O)C3=O)CC1)c1ccccn1 (stereo unspecified) | 5100
20 | C/C(=N\Nc1nc2ccccc2n1C1CN(c2ccc3c(c2)C(=O)N(C2CCC(=O)NC2=O)C3=O)C1)c1ccccn1 (stereo unspecified) | 4940
21 | C/C(=N\Nc1nc2ccccc2n1C1CN(c2cccc3c2C(=O)N(C2CCC(=O)NC2=O)C3=O)C1)c1ccccn1 (stereo unspecified) | 3360
22 | C/C(=N\Nc1nc2ccccc2n1CCNC(=O)CN1CCC(CN2CCN(c3ccc4c(c3)C(=O)N(C3CCC(=O)NC3=O)C4=O)CC2)CC1)c1ccccn1 (stereo unspecified) | 8740
23 | C/C(=N\Nc1nc2ccccc2n1CCNC(=O)CN1CCC2(CC1)CCN(c1ccc3c(c1)C(=O)N(C1CCC(=O)NC1=O)C3=O)CC2)c1ccccn1 (stereo unspecified) | 7990
24 | C/C(=N\Nc1nc2ccccc2n1C1CN(C(=O)C2CCN(c3cccc4c3C(=O)N(C3CCC(=O)NC3=O)C4=O)CC2)C1)c1ccccn1 (stereo unspecified) | 5850

Test system: MCF7
Assay: Antiproliferative activity against human MCF7 cells harboring ER-alpha D538G mutant assessed as inhibition of cell growth by CCK8 assay
Format: functional, cell-based

Row | SMILES | IC50 [nM]
25 | C/C(=N\Nc1nc2ccccc2n1C1CN(c2cccc3c2C(=O)N(C2CCC(=O)NC2=O)C3=O)C1)c1ccccn1 (stereo unspecified) | 520
26 | C/C(=N\Nc1nc2ccccc2n1CCNC(=O)CN1CCC2(CC1)CCN(c1ccc3c(c1)C(=O)N(C1CCC(=O)NC1=O)C3=O)CC2)c1ccccn1 (stereo unspecified) | 6990
27 | C/C(=N\Nc1nc2ccccc2n1C1CN(C(=O)C2CCN(c3cccc4c3C(=O)N(C3CCC(=O)NC3=O)C4=O)CC2)C1)c1ccccn1 (stereo unspecified) | 1730

The next lines start with the values.

Row | IC50 [nM] | SMILES
28 | 850 | C/C(=N\Nc1nc2ccccc2n1CCNC(=O)CN1CCC(CN2CCN(c3ccc4c(c3)C(=O)N(C3CCC(=O)NC3=O)C4=O)CC2)CC1)c1ccccn1 (stereo unspecified)
29 | 1520 | C/C(=N\Nc1nc2ccccc2n1CC1CCN(c2ccc3c(c2)C(=O)N(C2CCC(=O)NC2=O)C3=O)CC1)c1ccccn1 (stereo unspecified)
30 | 960 | C/C(=N\Nc1nc2ccccc2n1C1CN(c2ccc3c(c2)C(=O)N(C2CCC(=O)NC2=O)C3=O)C1)c1ccccn1 (stereo unspecified)

Test system: MCF7
Assay: Antiproliferative activity against human MCF7 cells harboring ER-alpha Y537S mutant assessed as inhibition of cell growth by CCK8 assay
Format: functional, cell-based

Row | SMILES | IC50 [nM]
31 | C/C(=N\Nc1nc2ccccc2n1C1CN(c2cccc3c2C(=O)N(C2CCC(=O)NC2=O)C3=O)C1)c1ccccn1 (stereo unspecified) | 100
32 | C/C(=N\Nc1nc2ccccc2n1CCNC(=O)CN1CCC2(CC1)CCN(c1ccc3c(c1)C(=O)N(C1CCC(=O)NC1=O)C3=O)CC2)c1ccccn1 (stereo unspecified) | 7200
33 | C/C(=N\Nc1nc2ccccc2n1C1CN(C(=O)C2CCN(c3cccc4c3C(=O)N(C3CCC(=O)NC3=O)C4=O)CC2)C1)c1ccccn1 (stereo unspecified) | 750

The next lines start with the values.

Row | IC50 [nM] | SMILES
34 | 500 | C/C(=N\Nc1nc2ccccc2n1CCNC(=O)CN1CCC(CN2CCN(c3ccc4c(c3)C(=O)N(C3CCC(=O)NC3=O)C4=O)CC2)CC1)c1ccccn1 (stereo unspecified)
35 | 360 | C/C(=N\Nc1nc2ccccc2n1CC1CCN(c2ccc3c(c2)C(=O)N(C2CCC(=O)NC2=O)C3=O)CC1)c1ccccn1 (stereo unspecified)
36 | 680 | C/C(=N\Nc1nc2ccccc2n1C1CN(c2ccc3c(c2)C(=O)N(C2CCC(=O)NC2=O)C3=O)C1)c1ccccn1 (stereo unspecified)
